Experimental data from ChEMBL document CHEMBL1201862, “PubChem BioAssay data set” (2004).
Activity calls are given as the source filed them.

Key:
[1] = HEp-2 cell cytotoxicity, dose response, cytotoxicity control for RSV inhibitor project, HTS (AID 2410); type: functional; details: human respiratory syncytial virus
cells [2] = assay: cells
Bcl-2-like protein 10 = Bcl-2-like protein 10 (Homo sapiens, UniProt Q9HD36); assay: Biochemical TR3 FP assay of Bcl-B inhibitor potency, EC50 (AID 1243); type: functional
[3] = molecular target: T1, Neuropeptide Y receptor type 1 (Homo sapiens, UniProt P25929); assay: NPY-Y1 receptor antagonist potency, dose response, cell-based (AID 1277); type: functional
T1 sequence (P25929 whole entry): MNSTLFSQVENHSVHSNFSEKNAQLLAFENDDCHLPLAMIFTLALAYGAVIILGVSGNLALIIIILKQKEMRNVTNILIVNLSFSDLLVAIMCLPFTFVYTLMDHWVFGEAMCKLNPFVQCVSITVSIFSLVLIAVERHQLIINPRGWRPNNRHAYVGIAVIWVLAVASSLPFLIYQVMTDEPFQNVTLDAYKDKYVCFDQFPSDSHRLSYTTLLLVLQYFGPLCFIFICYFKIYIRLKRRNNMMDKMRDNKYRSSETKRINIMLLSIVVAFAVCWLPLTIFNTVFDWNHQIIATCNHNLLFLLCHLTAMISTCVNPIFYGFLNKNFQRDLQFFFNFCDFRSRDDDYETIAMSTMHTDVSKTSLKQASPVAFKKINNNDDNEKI

[4] = molecular target: T2, Neuropeptide Y receptor type 2 (Homo sapiens, UniProt P49146); assay: NPY-Y2 antagonist potency, selectivity check, dose response, counter-screen for NPY-Y1 antagonist project, cell-based (AID 1278); type: functional
T2 sequence (P49146 whole entry): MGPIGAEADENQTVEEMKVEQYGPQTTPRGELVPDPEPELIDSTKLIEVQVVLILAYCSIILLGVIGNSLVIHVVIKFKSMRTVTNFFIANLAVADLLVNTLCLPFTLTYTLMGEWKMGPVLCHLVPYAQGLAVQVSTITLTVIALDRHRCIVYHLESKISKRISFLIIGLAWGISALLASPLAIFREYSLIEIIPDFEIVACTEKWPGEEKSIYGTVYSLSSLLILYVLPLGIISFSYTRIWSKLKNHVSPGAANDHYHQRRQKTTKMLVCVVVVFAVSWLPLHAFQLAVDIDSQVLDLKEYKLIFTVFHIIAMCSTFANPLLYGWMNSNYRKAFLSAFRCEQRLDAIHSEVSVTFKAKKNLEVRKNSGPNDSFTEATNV

[5] = inhibitors of intracellular T. cruzi replication, confirmation, NIH3T3 host cells, beta-gal luminescence (AID 2044); type: functional, cell-based;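 also: intracellular parasites grown in NIH/3T3 mouse fibroblasts as host cells; luminescent beta-galactosidase reporter signal from transgenic T. cruzi replicating inside host cells; inhibitors lower the luminescence signal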
Protein RecA = molecular target: T3, Protein RecA (Mycobacterium tuberculosis, UniProt P9WHJ3); assay: Fluorescence Cell-Free Homogeneous Dose Retest to Identify Inhibitors of RecA-Intein Splicing Activity. [Related pubchem assays (depositor defined):AID2097, AID2223, AID489010, AID492950]; type: functional
T3 sequence (P9WHJ3 whole entry): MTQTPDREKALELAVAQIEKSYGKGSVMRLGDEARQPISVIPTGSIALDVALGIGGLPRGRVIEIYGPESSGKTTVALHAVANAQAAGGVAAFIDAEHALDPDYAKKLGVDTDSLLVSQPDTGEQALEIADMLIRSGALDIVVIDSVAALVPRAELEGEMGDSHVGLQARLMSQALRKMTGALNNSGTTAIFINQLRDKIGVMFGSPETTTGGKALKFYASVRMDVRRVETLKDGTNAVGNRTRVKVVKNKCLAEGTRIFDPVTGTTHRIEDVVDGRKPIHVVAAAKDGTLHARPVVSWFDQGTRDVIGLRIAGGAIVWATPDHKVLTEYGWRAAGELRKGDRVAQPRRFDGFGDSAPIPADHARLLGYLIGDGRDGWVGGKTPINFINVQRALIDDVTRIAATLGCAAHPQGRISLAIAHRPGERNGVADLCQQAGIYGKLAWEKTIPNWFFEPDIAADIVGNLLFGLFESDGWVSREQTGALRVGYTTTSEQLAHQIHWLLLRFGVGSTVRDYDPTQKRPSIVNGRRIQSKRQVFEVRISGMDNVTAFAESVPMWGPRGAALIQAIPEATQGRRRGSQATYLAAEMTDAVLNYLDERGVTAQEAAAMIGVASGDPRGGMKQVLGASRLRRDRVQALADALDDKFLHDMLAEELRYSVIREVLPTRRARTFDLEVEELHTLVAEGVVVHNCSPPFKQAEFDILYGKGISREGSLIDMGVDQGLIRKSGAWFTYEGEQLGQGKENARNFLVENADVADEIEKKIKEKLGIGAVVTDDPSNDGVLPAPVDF

[6] = molecular target: T4, Replicative DNA helicase DnaB (Mycobacterium tuberculosis, UniProt P9WMR3); assay: DnaB intein splicing inhibitors, dose response, biochemical, cell-free fluorescence (AID 449749); type: functional
T4 sequence (P9WMR3 whole entry): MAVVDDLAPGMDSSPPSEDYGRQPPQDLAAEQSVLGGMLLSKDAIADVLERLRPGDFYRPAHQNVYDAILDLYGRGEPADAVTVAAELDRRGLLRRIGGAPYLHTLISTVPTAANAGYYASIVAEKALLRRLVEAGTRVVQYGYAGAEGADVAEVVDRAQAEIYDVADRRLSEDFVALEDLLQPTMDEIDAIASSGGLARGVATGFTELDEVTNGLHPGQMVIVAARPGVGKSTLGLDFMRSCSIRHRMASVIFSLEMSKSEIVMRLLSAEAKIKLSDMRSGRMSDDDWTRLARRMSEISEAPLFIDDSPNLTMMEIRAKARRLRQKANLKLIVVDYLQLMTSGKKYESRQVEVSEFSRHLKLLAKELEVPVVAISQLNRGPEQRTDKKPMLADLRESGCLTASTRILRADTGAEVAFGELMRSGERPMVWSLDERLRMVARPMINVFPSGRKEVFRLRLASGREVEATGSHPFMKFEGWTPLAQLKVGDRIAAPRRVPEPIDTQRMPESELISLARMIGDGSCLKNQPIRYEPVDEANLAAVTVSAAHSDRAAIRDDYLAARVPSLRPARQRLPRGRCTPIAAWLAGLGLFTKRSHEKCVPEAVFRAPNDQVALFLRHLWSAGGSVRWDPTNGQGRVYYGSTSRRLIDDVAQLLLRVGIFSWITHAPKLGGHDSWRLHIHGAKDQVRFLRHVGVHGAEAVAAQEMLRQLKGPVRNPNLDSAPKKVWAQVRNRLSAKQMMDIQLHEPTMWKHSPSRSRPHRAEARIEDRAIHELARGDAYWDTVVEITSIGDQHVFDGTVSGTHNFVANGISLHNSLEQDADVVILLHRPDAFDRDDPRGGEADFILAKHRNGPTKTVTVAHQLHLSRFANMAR

[7] = cytotoxicity toward NIH3T3 fibroblasts, dose response, counter-screen, cell-based, ATP luminescence, mouse fibroblasts (AID 2010); type: functional;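 also: cells exposed to compound for about 90 hours before reading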
cells [8] = assay: cells; remark: listed apart in the source
[9] = molecular target: Induced myeloid leukemia cell differentiation protein Mcl-1 (Homo sapiens, UniProt Q07820); assay: MCL1-BIM BH3 interaction inhibitors, dose response, biochemical, fluorescence polarization, BIM-BH3 peptide, 1536-well (AID 2217)
[10] = molecular target: Glyceraldehyde-3-phosphate dehydrogenase (Homo sapiens, UniProt P04406)
[11] = molecular target: T5, Dual specificity protein phosphatase 6 (Rattus norvegicus, UniProt Q64346)
T5 sequence (Q64346 whole entry): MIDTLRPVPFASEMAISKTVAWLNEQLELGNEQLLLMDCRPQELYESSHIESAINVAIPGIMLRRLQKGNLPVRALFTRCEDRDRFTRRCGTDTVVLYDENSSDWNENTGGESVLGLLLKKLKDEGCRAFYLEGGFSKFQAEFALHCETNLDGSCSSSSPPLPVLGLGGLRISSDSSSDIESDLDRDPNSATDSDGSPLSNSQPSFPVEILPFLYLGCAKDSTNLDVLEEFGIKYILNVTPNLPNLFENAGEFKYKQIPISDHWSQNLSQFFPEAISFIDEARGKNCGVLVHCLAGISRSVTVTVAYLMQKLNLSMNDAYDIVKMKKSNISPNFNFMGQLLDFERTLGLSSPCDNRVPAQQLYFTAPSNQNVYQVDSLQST

[12] = molecular target: T5, Dual specificity protein phosphatase 6; assay: MKP-3 phosphatase inhibitors, primary screen, biochemical, rat enzyme, in vitro (AID 425)
[13] = molecular target: T6, Tyrosine-protein phosphatase non-receptor type 7 (Homo sapiens, UniProt P35236); type: functional
T6 sequence (P35236 whole entry): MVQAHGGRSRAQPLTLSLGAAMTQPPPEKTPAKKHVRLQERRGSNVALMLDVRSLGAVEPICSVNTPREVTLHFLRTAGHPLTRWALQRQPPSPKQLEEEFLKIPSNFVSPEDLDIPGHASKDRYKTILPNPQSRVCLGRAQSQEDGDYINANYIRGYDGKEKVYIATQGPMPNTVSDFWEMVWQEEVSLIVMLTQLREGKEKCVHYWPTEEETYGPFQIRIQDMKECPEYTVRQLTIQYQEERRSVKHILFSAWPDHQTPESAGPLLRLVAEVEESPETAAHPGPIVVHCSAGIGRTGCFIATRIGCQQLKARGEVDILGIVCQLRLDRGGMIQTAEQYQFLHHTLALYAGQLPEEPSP

Bcl-2-like protein 1 = Bcl-2-like protein 1 (Homo sapiens, UniProt Q07817); assay: BCL-XL inhibitors, dose response, selectivity assay for MCL1 inhibitor project, biochemical, fluorescence polarization, 1536-well (AID 2218)
Genome polyprotein = Genome polyprotein (Hepatitis C virus, UniProt Q2Q167); assay: HCV core protein dimerization inhibitors, dose response, biochemical, TR-FRET (AID 2159); set-up: species or system Hepacivirus hominis;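 also: blocks dimerization of HCV core protein measured by TR-FRET between tagged core106 pairs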
[14] = molecular target: Eukaryotic translation initiation factor 4E (Mus musculus, UniProt P63073); assay: eIF4E–eIF4G protein interaction inhibitors, dose response, biochemical, TR-FRET (AID 855); type: functional;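 also: potency for disrupting eIF4E binding to eIF4GI seen as loss of FRET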
[15] = molecular target: T5, Dual specificity protein phosphatase 6; type: functional

Chain of Glyceraldehyde-3-phosphate dehydrogenase (P04406 whole entry): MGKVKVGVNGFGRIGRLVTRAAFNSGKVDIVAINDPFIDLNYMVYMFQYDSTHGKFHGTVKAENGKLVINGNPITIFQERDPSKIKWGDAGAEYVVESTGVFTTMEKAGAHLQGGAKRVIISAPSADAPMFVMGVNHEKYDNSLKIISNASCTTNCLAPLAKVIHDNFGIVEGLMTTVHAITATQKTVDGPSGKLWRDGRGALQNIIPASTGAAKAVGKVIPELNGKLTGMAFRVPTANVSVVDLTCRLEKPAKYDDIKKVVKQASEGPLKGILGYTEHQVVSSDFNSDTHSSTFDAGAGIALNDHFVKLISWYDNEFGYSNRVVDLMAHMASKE
Chain of Genome polyprotein (Q2Q167 whole entry): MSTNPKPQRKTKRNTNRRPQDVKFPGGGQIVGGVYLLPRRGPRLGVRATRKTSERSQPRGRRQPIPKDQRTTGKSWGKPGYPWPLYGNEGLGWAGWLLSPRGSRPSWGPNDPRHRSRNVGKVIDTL
Chain of Eukaryotic translation initiation factor 4E (P63073 whole entry): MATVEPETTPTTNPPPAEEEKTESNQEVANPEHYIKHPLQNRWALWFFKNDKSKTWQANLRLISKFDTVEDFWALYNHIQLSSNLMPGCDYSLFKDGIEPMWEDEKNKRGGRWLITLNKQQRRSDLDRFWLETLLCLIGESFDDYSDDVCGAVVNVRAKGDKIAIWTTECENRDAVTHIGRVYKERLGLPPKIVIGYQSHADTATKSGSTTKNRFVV
Chain of Induced myeloid leukemia cell differentiation protein Mcl-1 (Q07820 whole entry): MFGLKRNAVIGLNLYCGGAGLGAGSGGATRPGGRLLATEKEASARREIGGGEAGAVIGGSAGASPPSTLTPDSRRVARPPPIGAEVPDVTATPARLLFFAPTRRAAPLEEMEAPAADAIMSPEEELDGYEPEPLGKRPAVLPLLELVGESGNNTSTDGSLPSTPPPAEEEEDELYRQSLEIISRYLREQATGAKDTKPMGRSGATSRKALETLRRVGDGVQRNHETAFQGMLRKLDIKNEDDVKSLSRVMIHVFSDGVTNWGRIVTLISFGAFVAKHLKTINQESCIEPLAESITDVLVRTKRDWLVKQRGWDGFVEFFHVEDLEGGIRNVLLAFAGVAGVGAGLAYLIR
Chain of Bcl-2-like protein 1 (Q07817 whole entry): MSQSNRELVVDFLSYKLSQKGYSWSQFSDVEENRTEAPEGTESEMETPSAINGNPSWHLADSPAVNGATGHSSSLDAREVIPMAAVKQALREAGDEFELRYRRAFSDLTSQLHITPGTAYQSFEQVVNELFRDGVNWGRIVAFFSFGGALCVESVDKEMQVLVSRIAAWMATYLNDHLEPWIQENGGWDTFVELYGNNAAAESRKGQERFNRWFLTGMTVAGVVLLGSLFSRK
Chain of Bcl-2-like protein 10 (Q9HD36 whole entry): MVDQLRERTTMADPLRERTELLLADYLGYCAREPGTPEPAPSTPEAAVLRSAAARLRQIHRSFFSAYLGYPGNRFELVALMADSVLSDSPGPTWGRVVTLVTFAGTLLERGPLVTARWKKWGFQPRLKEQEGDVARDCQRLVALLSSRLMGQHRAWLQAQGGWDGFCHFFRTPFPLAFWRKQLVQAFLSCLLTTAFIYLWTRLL

Cc1cccc2nc(-c3cccc(NC(=O)Cc4ccccc4)c3)cn12
CC50 [1]: 42.8 µM (active) | IC50 (cells [2]): 29.7 µM (active)

CCSc1nc(NN)c2c3c(sc2n1)CN(C)CC3
EC50 (Bcl-2-like protein 10): 7.43 µM (active)

CCCCNC(=O)c1onc(CSc2ccc(Cl)cc2)c1C(=O)O
IC50 [3]: 16.8 µM (not active) | IC50 [4]: 9.93 µM (active)

O=C(CNC(=O)c1ccccc1)N/N=C/c1ccc([N+](=O)[O-])o1
EC50 [5]: < 0.1 µM (active) | EC50 (Protein RecA): > 380 µM (inactive) | AC50 [6]: > 380 µM (inactive) | EC50 [7]: > 60 µM (not active) | EC50 (cells [8]): 0.022 µM (active)

CCCCCC#CCC#CCC#CCC#CCCCC(=O)O
IC50 [9]: 0.441 µM (active) | IC50 [10]: > 100 µM (not active) | IC50 [11]: 25.1 µM (active) | IC50 [12]: 0.832 µM (active) | IC50 [13]: 15.4 µM (active) | IC50 (Bcl-2-like protein 1): > 109 µM (not active) | IC50 (Genome polyprotein): 46.3 µM (not active) | IC50 [14]: 32.1 µM (inactive) | IC50 [15]: 30.4 µM (active)
